# Results published in PubChem BioAssay AID624008 (Vanderbilt Specialized Chemistry Center, 2012).
# Active and inactive are the calls of the source. How the calls were made is not given here.
# Target: Phospholipase D1 (Homo sapiens) + Phospholipase D1 (Homo sapiens) (UniProt Q13393+Q13393)
# Assay: phospholipase D1 activity inhibition in cells – Calu-1 cells, Lib32, assay 1A (AID 624008)
# Details: PLD1 cellular activity, percent of control, hits give low values, concentration not given here
# Chain of Phospholipase D1 (Homo sapiens) + Phospholipase D1 (Homo sapiens) (Q13393 whole entry, looked up): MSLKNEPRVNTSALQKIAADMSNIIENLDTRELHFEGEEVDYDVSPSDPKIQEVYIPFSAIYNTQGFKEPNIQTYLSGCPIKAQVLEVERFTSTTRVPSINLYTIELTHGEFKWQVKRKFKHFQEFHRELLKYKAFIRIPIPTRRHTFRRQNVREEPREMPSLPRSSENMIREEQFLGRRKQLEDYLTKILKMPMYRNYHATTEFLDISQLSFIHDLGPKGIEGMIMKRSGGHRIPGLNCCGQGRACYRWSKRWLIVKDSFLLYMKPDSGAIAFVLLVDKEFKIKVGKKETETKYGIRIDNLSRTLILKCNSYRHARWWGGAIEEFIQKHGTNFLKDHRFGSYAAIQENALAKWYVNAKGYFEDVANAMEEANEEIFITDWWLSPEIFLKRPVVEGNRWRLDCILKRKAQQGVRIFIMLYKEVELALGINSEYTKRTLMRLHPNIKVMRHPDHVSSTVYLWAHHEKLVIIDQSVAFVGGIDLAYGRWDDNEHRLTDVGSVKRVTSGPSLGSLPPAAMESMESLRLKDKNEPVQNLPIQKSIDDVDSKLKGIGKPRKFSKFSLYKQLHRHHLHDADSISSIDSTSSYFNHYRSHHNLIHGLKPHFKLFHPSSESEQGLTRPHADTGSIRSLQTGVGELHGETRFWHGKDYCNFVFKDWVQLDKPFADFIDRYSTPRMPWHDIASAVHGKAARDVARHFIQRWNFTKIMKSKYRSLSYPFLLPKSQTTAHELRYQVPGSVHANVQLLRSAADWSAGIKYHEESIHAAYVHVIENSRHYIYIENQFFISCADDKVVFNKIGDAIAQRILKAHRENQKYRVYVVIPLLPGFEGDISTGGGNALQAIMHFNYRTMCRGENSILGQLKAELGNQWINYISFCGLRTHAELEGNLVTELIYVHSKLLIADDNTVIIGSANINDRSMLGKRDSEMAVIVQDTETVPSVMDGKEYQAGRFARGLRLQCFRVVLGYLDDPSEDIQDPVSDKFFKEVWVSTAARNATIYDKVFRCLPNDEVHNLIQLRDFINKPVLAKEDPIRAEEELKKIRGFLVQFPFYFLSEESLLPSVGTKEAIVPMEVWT
# Chain of Phospholipase D1 (Homo sapiens) + Phospholipase D1 (Homo sapiens) (Q13393 whole entry, looked up): as above
row,Structure (SMILES),remaining activity
1,O=C(NCCN1CCC2(CC1)C(=O)NCN2c1cccc(F)c1)c1ccccn1,93.5% (inactive)
2,C[C@@H](CN1CCC2(CC1)C(=O)NCN2c1cccc(F)c1)NC(=O)c1cccc(F)c1,45.7%
3,O=C(NCCN1CCC2(CC1)C(=O)NCN2c1cccc(F)c1)c1cccc(C(F)(F)F)c1,94.8% (inactive)
4,O=C(c1ccc(F)cc1)N(CCN1CCC2(CC1)C(=O)NCN2c1cccc(F)c1)C(=O)c1ccc(F)cc1,109% (inactive)
5,O=C(NCCN1CCC2(CC1)C(=O)NCN2c1cccc(F)c1)c1cccc2ccccc12,102% (inactive)
6,C[C@@H](CN1CCC2(CC1)C(=O)NCN2c1cccc(F)c1)NC(=O)c1ccccc1I,91.6% (inactive)
7,O=C(NCCN1CCC2(CC1)C(=O)NCN2c1cccc(F)c1)c1ccccc1I,99.7% (inactive)
8,O=C(NCCN1CCC2(CC1)C(=O)NCN2c1cccc(F)c1)c1cccc2c1OCO2,102% (inactive)
9,O=C(NCCN1CCC2(CC1)C(=O)NCN2c1cccc(F)c1)c1c(F)ccc(F)c1Cl,106% (inactive)
10,C[C@@H](CN1CCC2(CC1)C(=O)NCN2c1cccc(F)c1)NC(=O)c1c(F)cccc1F,75.1%
11,COc1cc(C(=O)N[C@@H](C)CN2CCC3(CC2)C(=O)NCN3c2cccc(F)c2)cc(OC)c1OC,9.86%
12,C[C@@H](CN1CCC2(CC1)C(=O)NCN2c1cccc(F)c1)NC(=O)c1c(F)ccc(F)c1Cl,81.7% (inactive)
13,O=C(NCCN1CCC2(CC1)C(=O)NCN2c1cccc(F)c1)c1ccc(Cl)cc1Cl,107% (inactive)
14,C[C@@H](CN1CCC2(CC1)C(=O)NCN2c1cccc(F)c1)NC(=O)c1cccc([N+](=O)[O-])c1,28.6%
15,C[C@@H](CN1CCC2(CC1)C(=O)NCN2c1cccc(F)c1)NC(=O)c1ccc(Br)cc1,10.2%
16,C[C@@H](CN1CCC2(CC1)C(=O)NCN2c1cccc(F)c1)NC(=O)c1ccc(F)c(F)c1,10.1%
17,C[C@@H](CN1CCC2(CC1)C(=O)NCN2c1cccc(F)c1)NC(=O)c1cccc2ccccc12,64.5%
18,C[C@@H](CN1CCC2(CC1)C(=O)NCN2c1cccc(F)c1)NC(=O)c1ccc(F)cc1F,28.8%
19,C[C@@H](CN1CCC2(CC1)C(=O)NCN2c1cccc(F)c1)NC(=O)c1ccc(Cl)cc1Cl,71.6%
20,O=C(NCCN1CCC2(CC1)C(=O)NCN2c1cccc(F)c1)c1ccc(F)cc1F,99% (inactive)
21,O=C(NCCN1CCC2(CC1)C(=O)NCN2c1cccc(F)c1)c1cccc([N+](=O)[O-])c1,101% (inactive)
22,O=C(Cc1ccc(F)cc1)NCCN1CCC2(CC1)C(=O)NCN2c1cccc(F)c1,99.3% (inactive)
23,COc1cc(C(=O)NCCN2CCC3(CC2)C(=O)NCN3c2cccc(F)c2)cc(OC)c1OC,113% (inactive)
24,C[C@@H](CN1CCC2(CC1)C(=O)NCN2c1cccc(F)c1)NC(=O)c1ccc(F)cc1,24%
25,O=C(NCCN1CCC2(CC1)C(=O)NCN2c1cccc(F)c1)c1ccc(Br)cc1,98.5% (inactive)
26,C[C@@H](CN1CCC2(CC1)C(=O)NCN2c1cccc(F)c1)NC(=O)c1cccc(C(F)(F)F)c1,82.3% (inactive)
27,C[C@@H](CN1CCC2(CC1)C(=O)NCN2c1cccc(F)c1)NC(=O)Cc1ccc(F)cc1,102% (inactive)
28,O=C(NCCN1CCC2(CC1)C(=O)NCN2c1cccc(F)c1)c1ccc(F)cc1,102% (inactive)
